Legend:
Jurkat cells = test: IL-2 secretion assay in CD3/CD28-activated Jurkat cells (AlphaLISA); format: cell-based; details: Homo sapiens, CD3/CD28 T Cell Activator, 24 h, IL-2 AlphaLISA
Procedure, shortened: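 Jurkat cells (50,000/well) were preincubated 1 h at 37° C with compound in a 16-point 1:2 series spanning 10 μM to 300 pM final. Cells were then activated with CD3/CD28 T cell activator, and secreted IL-2 was read by AlphaLISA. EC50 came from 4-parameter logistic fits.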

Cbl-b = molecular target: T1, Cbl-b (Homo sapiens, UniProt Q13191); test: Cbl-b probe displacement HTRF binding assay; details: 0.4 nM biotinylated Cbl-b, 150 nM BODIPY probe
T1 construct: biotin (biotinylated)
T1 sequence (Q13191 whole entry, species assumed): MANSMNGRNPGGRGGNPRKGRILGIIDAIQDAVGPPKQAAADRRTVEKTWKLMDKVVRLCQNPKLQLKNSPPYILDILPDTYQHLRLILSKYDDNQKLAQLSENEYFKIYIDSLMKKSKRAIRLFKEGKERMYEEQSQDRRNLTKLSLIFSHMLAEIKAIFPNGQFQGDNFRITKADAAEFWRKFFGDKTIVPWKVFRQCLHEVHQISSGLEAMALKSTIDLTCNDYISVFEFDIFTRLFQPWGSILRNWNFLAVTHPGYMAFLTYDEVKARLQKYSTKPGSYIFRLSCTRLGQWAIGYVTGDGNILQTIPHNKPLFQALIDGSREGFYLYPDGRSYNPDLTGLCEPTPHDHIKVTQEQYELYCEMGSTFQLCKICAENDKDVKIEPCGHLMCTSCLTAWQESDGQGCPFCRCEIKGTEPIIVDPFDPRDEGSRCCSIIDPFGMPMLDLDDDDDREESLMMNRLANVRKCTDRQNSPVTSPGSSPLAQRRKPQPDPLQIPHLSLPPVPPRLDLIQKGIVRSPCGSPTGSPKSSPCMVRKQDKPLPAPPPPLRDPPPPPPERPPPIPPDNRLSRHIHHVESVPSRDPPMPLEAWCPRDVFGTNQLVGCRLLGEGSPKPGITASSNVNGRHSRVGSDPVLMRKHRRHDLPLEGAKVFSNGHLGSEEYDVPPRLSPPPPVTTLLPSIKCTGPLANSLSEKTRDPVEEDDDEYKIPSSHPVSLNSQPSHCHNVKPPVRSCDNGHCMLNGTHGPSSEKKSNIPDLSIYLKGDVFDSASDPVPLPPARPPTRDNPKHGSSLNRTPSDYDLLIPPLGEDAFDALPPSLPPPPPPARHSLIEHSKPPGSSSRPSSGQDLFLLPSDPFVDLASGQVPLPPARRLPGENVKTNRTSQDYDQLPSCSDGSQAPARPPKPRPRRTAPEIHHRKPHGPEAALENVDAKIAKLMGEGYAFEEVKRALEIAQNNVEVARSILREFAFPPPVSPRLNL
Procedure, shortened: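 Biotinylated Cbl-b was preincubated with compound for 60 min at room temperature in HEPES/NaCl/Triton/TCEP/BSA buffer. BODIPY probe was added for 15 min, followed by streptavidin-terbium, and the HTRF signal was read. Displacement was normalised to DMSO and no-protein controls, and affinity was obtained from a four-parameter dose-response fit.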

Row | EC50 (Jurkat cells) | IC50 (Cbl-b) | Compound
1 | < 100 nM | < 100 nM | C[C@H]1CCCN(Cc2nc3c(C4CC4)cn(-c4cccc(C5(c6nncn6C)CC(F)(F)C5)c4)c(=O)c3[nH]2)C1 [Example 112, 7-cyclopropyl-5-[3-[3,3-difluoro-1-(4-methyl-1,2,4-triazol-3-yl)cyclobutyl]phenyl]-2-[[(3S)-3-methylpiperidin-1-yl]methyl]-3H-imidazo[4,5-c]pyridin-4-one]
2 | < 100 nM | < 100 nM | C[C@H]1CCCN(Cc2cc3c(C4CC4)cn(-c4cccc(C5(c6nncn6C)CC6(CC6)C5)c4)c(=O)c3[nH]2)C1 [Example 74, 4-cyclopropyl-2-[[(3S)-3-methylpiperidin-1-yl]methyl]-6-[3-[5-(4-methyl-1,2,4-triazol-3-yl)spiro[2.3]hexan-5-yl]phenyl]-1H-pyrrolo[2,3-c]pyridin-7-one]
3 | 100 to 1000 nM | < 100 nM | Cn1cnnc1[C@]1(c2cccc(-n3cc(C(F)(F)F)c4cc[nH]c4c3=O)c2)C[C@H](C)C1 (single isomer, unassigned) [Example 36]
4 | 100 to 1000 nM | < 100 nM | CC1CC(c2cccc(-n3cc(C4CC4)c4cc(CN(C)C5CC5)[nH]c4c3=O)c2)(c2nncn2C)C1 (centres unmarked) [Example 54, 4-cyclopropyl-2-{I[cyclopropyl(methyl)amino]methyl}-6-{3-[3-methyl-1-(4-methyl-4H-1,2,4-triazol-3-yl)cyclobutyl]phenyl}-1H,6H,7H-pyrrolo[2,3-c]pyridin-7-one]
5 | < 100 nM | < 100 nM | C[C@H]1CCCN(Cc2nc3c(C4CC4)cn(-c4cccc(C5(c6nncn6C)CC6(CC6)C5)c4)c(=O)c3[nH]2)C1 [Example 111, 7-cyclopropyl-2-[[(3S)-3-methylpiperidin-1-yl]methyl]-5-[3-[5-(4-methyl-1,2,4-triazol-3-yl)spiro[2.3]hexan-5-yl]phenyl]-3H-imidazo[4,5-c]pyridin-4-one]
6 | 100 to 1000 nM | < 100 nM | Cn1cnnc1C1(c2cccc(-n3cc(C4CC4)c4cc(CNCC5(O)CCC5)[nH]c4c3=O)c2)CC(F)(F)C1 [Example 83, 4-cyclopropyl-6-{3-[3,3-difluoro-1-(4-methyl-4H-1,2,4-triazol-3-yl)cyclobutyl]phenyl}-2-({[(1-hydroxycyclobutyl)methyl]amino}methyl)-1H,6H,7H-pyrrolo[2,3-c]pyridin-7-one]
7 | < 100 nM | < 100 nM | C[C@H]1CCCN(Cc2cc3c(C4CC4)cn(-c4cccc([C@]5(c6nncn6C)C[C@H](F)C5)c4)c(=O)c3[nH]2)C1 [Example 130, trans-4-cyclopropyl-6-[3-[3-fluoro-1-(4-methyl-1,2,4-triazol-3-yl)cyclobutyl]phenyl]-2-[[(3S)-3-methylpiperidin-1-yl]methyl]-1H-pyrrolo[2,3-c]pyridin-7-one]
8 | 1000 to 5000 nM | 100 to 1000 nM | Cn1cnnc1C1(c2cccc(-n3cc(C4CC4)c4cc(CN5CCOC6(CC6)C5)[nH]c4c3=O)c2)CC(F)(F)C1 [Example 86, 4-cyclopropyl-6-{3-[3,3-difluoro-1-(4-methyl-4H-1,2,4-triazol-3-yl)cyclobutyl]phenyl}-2-({4-oxa-7-azaspiro[2.5]octan-7-yl}methyl)-1H,6H,7H-pyrrolo[2,3-c]pyridin-7-one]
9 | < 100 nM | < 100 nM | CC1CC(c2cccc(-n3cc(C4CC4)c4cc(CN5CCC6(CC5)CC6)[nH]c4c3=O)c2)(c2nncn2C)C1 (centres unmarked) [Example 50, 2-({6-azaspiro[2.5]octan-6-yl}methyl)-4-cyclopropyl-6-{3-[3-methyl-1-(4-methyl-4H-1,2,4-triazol-3-yl)cyclobutyl]phenyl}-1H,6H,7H-pyrrolo[2,3-c]pyridin-7-one]
10 | 1000 to 5000 nM | 100 to 1000 nM | CC1CC(c2cccc(-n3cc(C4CC4)c4cc[nH]c4c3=O)c2)(c2nncn2C)C1 (centres unmarked) [Example 4, 4-cyclopropyl-6-[3-[3-methyl-1-(4-methyl-1,2,4-triazol-3-yl)cyclobutyl]phenyl]-1H-pyrrolo[2,3-c]pyridin-7-one]
11 | 1000 to 5000 nM | < 100 nM | Cn1cnnc1C1(c2cccc(-n3cc(C4CC4)c4cc(CN5CCC[C@@H]5CO)[nH]c4c3=O)c2)CC(F)(F)C1 [Example 82, 4-cyclopropyl-6-{3-[3,3-difluoro-1-(4-methyl-4H-1,2,4-triazol-3-yl)cyclobutyl]phenyl}-2-{[(2R)-2-(hydroxymethyl)pyrrolidin-1-yl]methyl}-1H,6H,7H-pyrrolo[2,3-c]pyridin-7-one]
12 | < 100 nM | < 100 nM | C[C@H]1CCCN(Cc2cc3c(C4CC4)cn(-c4cccc([C@]5(c6nncn6C(F)F)C[C@H](OC(F)F)C5)c4)c(=O)c3[nH]2)C1 [Example 151, 2—{[(S)-3-methyl-1-piperidyl]methyl}-4-cyclopropyl-6-(m-{(1r,3S)-3-difluoromethoxy-1-[4-(difluoromethyl)-4H-1,2,4-triazol-3-yl]cyclobutyl}phenyl)-1,6-dihydro-1,6-diaza-7-indenone]
13 | 100 to 1000 nM | < 100 nM | Cn1cnnc1[C@]1(c2cccc(-n3cc(C(F)(F)F)c4cc[nH]c4c3=O)c2)C[C@@H](C)C1 (single isomer, unassigned) [Example 37]
14 | 1000 to 5000 nM | < 100 nM | CC(C)n1cnnc1C1(c2cccc(-n3cc(C4CC4)c4cc(CN5CCC[C@H](C)C5)[nH]c4c3=O)c2)CC2(CC2)C1 [Example 145, 4-Cyclopropyl-2-[[(3S)-3-methylpiperidin-1-yl]methyl]-6-[3-[5-(4-propan-2-yl-1,2,4-triazol-3-yl)spiro[2.3]hexan-5-yl]phenyl]-1H-pyrrolo[2,3-c]pyridin-7-one]
15 | 100 to 1000 nM | < 100 nM | C[C@H]1CCCN(Cc2cc3c(C4CC4)cn(-c4cccc(C(O)(c5nncn5C)C(F)(F)F)c4)c(=O)c3[nH]2)C1 (some centres unmarked) [Example 156]
16 | < 100 nM | < 100 nM | CC1CC(c2cccc(-n3cc(C4CC4)c4c(C#N)c(CN5CCC[C@H](C)C5)[nH]c4c3=O)c2)(c2nncn2C)C1 (mixture of isomers) [Example 134, 4-Cyclopropyl-2-{[(3S)-3-methylpiperidin-1-yl]methyl}-7-oxo-6-{3-[(1R,3S)-3-methyl-1-(4-methyl-4H-1,2,4-triazol-3-yl)cyclobutyl]phenyl}-1H,6H,7H-pyrrolo[2,3-c]pyridine-3-carbonitrile]
17 | 1000 to 5000 nM | 100 to 1000 nM | Cn1cnnc1C1(c2cccc(-n3cc(C4CC4)c4cc[nH]c4c3=O)c2)CCC1 [Example 9, 4-cyclopropyl-6-[3-[1-(4-methyl-1,2,4-triazol-3-yl)cyclobutyl]phenyl]-1H-pyrrolo[2,3-c]pyridin-7-one]
18 | 100 to 1000 nM | < 100 nM | C[C@H]1CCCN(Cc2cc3ncn(-c4cccc(C5(c6nncn6C)CC(F)(F)C5)c4)c(=O)c3[nH]2)C1 [Example 120, 3-{3-[3,3-Difluoro-1-(4-methyl-4H-1,2,4-triazol-3-yl)cyclobutyl]phenyl}-6-{[(3S)-3-methylpiperidin-1-yl]methyl}-3H,4H,5H-pyrrolo[3,2-d]pyrimidin-4-one]
19 | 1000 to 5000 nM | 100 to 1000 nM | CC1CC(c2cccc(-n3cc(C4CC4)c4cc(CNC5(C(F)(F)F)CC5)[nH]c4c3=O)c2)(c2nncn2C)C1 (centres unmarked) [Example 41, 4-cyclopropyl-6-{3-[(1r,3s)-3-methyl-1-(4-methyl-4H-1,2,4-triazol-3-yl)cyclobutyl]phenyl}-2-({[1-(trifluoromethyl)cyclopropyl]amino}methyl)-1H,6H,7H-pyrrolo[2,3-c]pyridin-7-one]

Source: patent US20260028336A1 (Arcus Biosciences, Inc., priority 2022, published 2026)
